Reference: patent EP4745135A1 (Gluetacs Therapeutics (Shanghai) Co., Ltd., priority 2023, dated 2025)

What was measured:
CK1α = target: T1, CK1α (Homo sapiens, UniProt P48729+Q96SW2); assay: Western blot, degradation of substrate protein in hPBMCs; type: cell-based
T1 construct: effects of the compounds of the present disclosure on the expression of target proteins in cells; endogenous in cells; host or cells: human PBMCs (Milecell Biotechnologies)

IKZF1 = target: T2, IKZF1 (Homo sapiens, UniProt Q13422+Q96SW2); assay: as above; type: cell-based
T2 construct: effects of the compounds of the present disclosure on the expression of target proteins in cells; endogenous in cells; host or cells: human PBMCs (Milecell Biotechnologies)

IKZF2 = target: T3, IKZF2 (Homo sapiens, UniProt Q96SW2+Q9UKS7); assay: as above; type: cell-based
T3 construct: effects of the compounds of the present disclosure on the expression of target proteins in cells; endogenous in cells; host or cells: human PBMCs (Milecell Biotechnologies)

IKZF3 = target: T4, IKZF3 (Homo sapiens, UniProt Q96SW2+Q9UKT9); assay: as above; type: cell-based
T4 construct: effects of the compounds of the present disclosure on the expression of target proteins in cells; endogenous in cells; host or cells: human PBMCs (Milecell Biotechnologies)

WEE1 = target: T5, WEE1 (Homo sapiens, UniProt P30291+Q96SW2); assay: as above; type: cell-based
T5 construct: effects of the compounds of the present disclosure on the expression of target proteins in cells; endogenous in cells; host or cells: human PBMCs (Milecell Biotechnologies)

GSPT1 = assay: as above; type: cell-based, Human
[1] = target: T6, human Cereblon WT GST-tagged protein (Homo sapiens, UniProt Q96SW2); assay: CRBN-binding affinity, HTRF (CEREBLON BINDING kit); settings: for inhibition at 0.5 µM: read-out: Inhibition Rate at 0.5 µM (%); for inhibition at 2 µM: read-out: Inhibition Rate at 2 µM (%)
T6 construct: purchased CISBIO 64BDCRBNPEH

[2] = Western blot, 24 hours of compound treatment, compounds tested at 50 nM and 500 nM (concentration for the table not stated)
[3] = 24 hours treatment, compounds at 50 nM and 500 nM (concentration behind the class not stated)

T3 sequence (Q9UKS7 whole entry): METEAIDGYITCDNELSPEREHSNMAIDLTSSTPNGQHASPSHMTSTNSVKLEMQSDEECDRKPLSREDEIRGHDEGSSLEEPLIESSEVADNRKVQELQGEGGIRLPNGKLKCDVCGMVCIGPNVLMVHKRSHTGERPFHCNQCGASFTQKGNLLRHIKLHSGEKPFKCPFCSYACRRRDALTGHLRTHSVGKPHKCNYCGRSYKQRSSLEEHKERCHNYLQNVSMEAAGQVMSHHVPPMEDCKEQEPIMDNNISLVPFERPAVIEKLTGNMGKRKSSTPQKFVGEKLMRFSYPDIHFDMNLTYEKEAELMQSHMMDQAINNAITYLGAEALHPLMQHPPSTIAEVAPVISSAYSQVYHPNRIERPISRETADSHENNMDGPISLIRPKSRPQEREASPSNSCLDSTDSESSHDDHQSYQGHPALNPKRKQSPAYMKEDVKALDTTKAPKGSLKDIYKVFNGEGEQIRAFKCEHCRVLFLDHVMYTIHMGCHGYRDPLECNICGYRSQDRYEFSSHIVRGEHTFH
T3 sequence (Q96SW2 whole entry): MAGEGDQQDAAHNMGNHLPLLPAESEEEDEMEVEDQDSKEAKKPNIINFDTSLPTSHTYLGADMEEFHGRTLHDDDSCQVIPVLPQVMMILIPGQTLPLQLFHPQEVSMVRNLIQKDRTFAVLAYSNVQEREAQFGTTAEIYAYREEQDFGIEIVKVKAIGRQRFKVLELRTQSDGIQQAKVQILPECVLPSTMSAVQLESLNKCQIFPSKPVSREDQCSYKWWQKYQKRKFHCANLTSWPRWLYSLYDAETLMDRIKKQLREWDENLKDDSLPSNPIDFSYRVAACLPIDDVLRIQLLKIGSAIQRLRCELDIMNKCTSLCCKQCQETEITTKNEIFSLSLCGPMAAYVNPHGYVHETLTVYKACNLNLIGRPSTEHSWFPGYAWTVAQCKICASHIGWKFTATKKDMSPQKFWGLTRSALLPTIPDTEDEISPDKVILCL
T3 sequence (Q16531 whole entry partner): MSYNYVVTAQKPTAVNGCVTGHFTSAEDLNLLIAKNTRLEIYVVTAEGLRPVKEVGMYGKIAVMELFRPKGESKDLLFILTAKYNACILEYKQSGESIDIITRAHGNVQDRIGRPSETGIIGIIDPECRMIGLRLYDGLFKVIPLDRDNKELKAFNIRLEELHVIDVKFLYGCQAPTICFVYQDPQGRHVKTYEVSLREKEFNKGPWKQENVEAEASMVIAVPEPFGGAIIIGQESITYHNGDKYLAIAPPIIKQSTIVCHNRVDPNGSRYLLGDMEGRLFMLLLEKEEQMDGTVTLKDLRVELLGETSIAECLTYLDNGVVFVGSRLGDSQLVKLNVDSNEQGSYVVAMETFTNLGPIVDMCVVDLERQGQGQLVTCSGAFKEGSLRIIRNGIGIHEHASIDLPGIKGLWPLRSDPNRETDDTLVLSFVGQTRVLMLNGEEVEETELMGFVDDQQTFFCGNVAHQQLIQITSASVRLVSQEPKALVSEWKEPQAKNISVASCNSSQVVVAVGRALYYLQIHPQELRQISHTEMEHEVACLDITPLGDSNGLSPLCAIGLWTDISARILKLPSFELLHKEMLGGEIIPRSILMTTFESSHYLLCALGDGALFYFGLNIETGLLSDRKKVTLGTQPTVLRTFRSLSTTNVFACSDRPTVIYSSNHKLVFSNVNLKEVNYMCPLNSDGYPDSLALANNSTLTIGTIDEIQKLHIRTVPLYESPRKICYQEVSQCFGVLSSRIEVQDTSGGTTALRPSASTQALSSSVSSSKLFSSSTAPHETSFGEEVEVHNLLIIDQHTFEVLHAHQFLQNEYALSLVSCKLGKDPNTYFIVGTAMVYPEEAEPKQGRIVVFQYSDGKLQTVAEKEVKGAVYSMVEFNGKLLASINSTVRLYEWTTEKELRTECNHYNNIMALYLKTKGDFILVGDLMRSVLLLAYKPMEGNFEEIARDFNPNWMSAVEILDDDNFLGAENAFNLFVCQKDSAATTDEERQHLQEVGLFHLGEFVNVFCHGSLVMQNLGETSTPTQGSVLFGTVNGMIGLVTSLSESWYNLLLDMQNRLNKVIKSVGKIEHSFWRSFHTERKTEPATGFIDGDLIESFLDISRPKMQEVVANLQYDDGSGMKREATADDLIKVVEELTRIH
T4 sequence (Q9UKT9 whole entry): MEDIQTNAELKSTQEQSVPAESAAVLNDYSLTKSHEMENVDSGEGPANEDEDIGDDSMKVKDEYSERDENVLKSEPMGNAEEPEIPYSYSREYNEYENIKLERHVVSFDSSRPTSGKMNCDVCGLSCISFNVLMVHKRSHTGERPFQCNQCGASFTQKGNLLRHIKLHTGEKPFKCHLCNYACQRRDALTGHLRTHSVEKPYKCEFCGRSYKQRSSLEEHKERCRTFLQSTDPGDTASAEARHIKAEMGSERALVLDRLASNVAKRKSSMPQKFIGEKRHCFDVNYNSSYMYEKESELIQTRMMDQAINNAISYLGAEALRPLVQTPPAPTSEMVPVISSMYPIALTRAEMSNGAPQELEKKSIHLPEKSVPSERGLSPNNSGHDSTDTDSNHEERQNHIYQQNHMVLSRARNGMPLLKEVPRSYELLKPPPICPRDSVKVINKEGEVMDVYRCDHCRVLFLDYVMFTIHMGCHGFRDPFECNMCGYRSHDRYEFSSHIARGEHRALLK
T4 sequence (Q96SW2 whole entry): as the sequence (Q96SW2 whole entry) above
T4 sequence (Q16531 whole entry partner): as the sequence (Q16531 whole entry partner) above
T1 sequence (P48729 whole entry): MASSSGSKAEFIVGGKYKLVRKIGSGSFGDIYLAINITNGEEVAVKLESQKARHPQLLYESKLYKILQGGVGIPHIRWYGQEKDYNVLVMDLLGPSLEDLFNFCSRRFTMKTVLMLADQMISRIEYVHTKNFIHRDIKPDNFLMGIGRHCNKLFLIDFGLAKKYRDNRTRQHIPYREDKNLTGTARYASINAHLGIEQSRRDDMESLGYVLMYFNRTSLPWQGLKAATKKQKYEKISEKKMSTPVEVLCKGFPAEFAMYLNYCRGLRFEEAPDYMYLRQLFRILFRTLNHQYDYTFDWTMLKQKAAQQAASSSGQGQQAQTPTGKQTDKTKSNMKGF
T1 sequence (Q96SW2 whole entry): as the sequence (Q96SW2 whole entry) above
T1 sequence (Q16531 whole entry partner): as the sequence (Q16531 whole entry partner) above
T2 sequence (Q13422 whole entry): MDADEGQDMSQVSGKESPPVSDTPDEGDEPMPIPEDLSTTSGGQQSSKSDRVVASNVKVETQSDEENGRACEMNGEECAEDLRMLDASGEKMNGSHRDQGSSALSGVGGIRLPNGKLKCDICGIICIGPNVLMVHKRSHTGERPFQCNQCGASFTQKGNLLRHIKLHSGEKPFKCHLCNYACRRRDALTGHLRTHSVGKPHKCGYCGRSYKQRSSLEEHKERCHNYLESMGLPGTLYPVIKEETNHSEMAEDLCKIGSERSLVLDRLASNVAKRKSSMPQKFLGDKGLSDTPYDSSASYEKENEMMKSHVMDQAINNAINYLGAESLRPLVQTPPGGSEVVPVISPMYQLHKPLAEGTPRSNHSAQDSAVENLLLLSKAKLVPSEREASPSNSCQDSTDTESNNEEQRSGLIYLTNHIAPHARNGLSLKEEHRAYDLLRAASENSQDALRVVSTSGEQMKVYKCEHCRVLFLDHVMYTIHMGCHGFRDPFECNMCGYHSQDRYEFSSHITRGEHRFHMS
T2 sequence (Q96SW2 whole entry): as the sequence (Q96SW2 whole entry) above
T2 sequence (Q16531 whole entry partner): as the sequence (Q16531 whole entry partner) above
T6 sequence (Q96SW2 whole entry): as the sequence (Q96SW2 whole entry) above
T5 sequence (P30291 whole entry): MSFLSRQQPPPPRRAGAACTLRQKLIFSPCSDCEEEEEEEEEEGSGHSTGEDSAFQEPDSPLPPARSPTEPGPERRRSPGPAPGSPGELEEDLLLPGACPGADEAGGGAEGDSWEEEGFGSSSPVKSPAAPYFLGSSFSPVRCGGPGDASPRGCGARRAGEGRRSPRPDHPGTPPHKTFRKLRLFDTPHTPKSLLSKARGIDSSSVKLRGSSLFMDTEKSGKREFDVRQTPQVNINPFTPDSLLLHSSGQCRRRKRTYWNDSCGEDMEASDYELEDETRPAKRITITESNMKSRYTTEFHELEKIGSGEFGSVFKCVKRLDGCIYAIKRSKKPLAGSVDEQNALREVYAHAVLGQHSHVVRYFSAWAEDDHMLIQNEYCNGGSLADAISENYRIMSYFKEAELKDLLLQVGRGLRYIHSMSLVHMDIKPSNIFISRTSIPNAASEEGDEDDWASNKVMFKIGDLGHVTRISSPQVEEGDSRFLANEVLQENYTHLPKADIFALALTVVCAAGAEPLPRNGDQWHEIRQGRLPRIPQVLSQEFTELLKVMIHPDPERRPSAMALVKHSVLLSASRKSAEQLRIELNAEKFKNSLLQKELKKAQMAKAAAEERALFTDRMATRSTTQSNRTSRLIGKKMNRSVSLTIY
T5 sequence (Q96SW2 whole entry): as the sequence (Q96SW2 whole entry) above
T5 sequence (Q16531 whole entry partner): as the sequence (Q16531 whole entry partner) above

| Structure (SMILES) | CK1α substrate protein remaining % (CK1α; [2]) | IKZF 1 substrate protein remaining % (IKZF1; [2]) | IKZF2 substrate protein remaining % (IKZF2; [2]) | IKZF3 substrate protein remaining % (IKZF3; [2]) | Wee1 substrate protein remaining % (WEE1; [2]) | GSPT1 substrate protein remaining % (GSPT1; [2]) | inhibition at 0.5 µM [1] [%] | inhibition at 2 µM [1] [%] | CK1α substrate protein remaining % (CK1α; [3]) | IKZF 1 substrate protein remaining % (IKZF1; [3]) | IKZF2 substrate protein remaining % (IKZF2; [3]) | IKZF3 substrate protein remaining % (IKZF3; [3]) | Wee1 substrate protein remaining % (WEE1; [3]) | GSPT1 substrate protein remaining % (GSPT1; [3]) |
| --- | --- | --- | --- | --- | --- | --- | --- | --- | --- | --- | --- | --- | --- | --- |
| O=C1CCC(N2Cc3c(CN4CCC(n5cnc6cc(F)ccc65)CC4)cccc3C2=S)C(=O)N1 (centres unmarked) [GT-08842, 3-(4-((4-(5-fluoro-1H-benzo[d]imidazol-1-yl)piperidin-1-yl)methyl)-1-thioxoisoindolin-2-yl)piperidine-2,6-dione] | B (80%< substrate protein remaining %≤ 100%) | B (80%< substrate protein remaining %≤ 100%) | B (80%< substrate protein remaining %≤ 100%) | B (80%< substrate protein remaining %≤ 100%) | A (0% ≤ substrate protein remaining % ≤ 80%) | B (80%< substrate protein remaining %≤ 100%) | 40 to 53 | 80 to 100 | – | – | – | – | – | – |
| Cn1cc(C2CCN(Cc3cccc4c3CN(C3CCC(=O)NC3=O)C4=S)CC2)c2ccc(F)cc21 (centres unmarked) [GT-08844, 3-(4-((4-(6-fluoro-1-methyl-1H-indol-3-yl)piperidin-1-yl)methyl)-1-thioxoisoindolin-2-yl)piperidine-2,6-dione] | B (80%< substrate protein remaining %≤ 100%) | B (80%< substrate protein remaining %≤ 100%) | B (80%< substrate protein remaining %≤ 100%) | B (80%< substrate protein remaining %≤ 100%) | A (0% ≤ substrate protein remaining % ≤ 80%) | B (80%< substrate protein remaining %≤ 100%) | 40 to 53 | 60 to 80 | – | – | – | – | – | – |
| O=C1CCC(N2Cc3c(CN4CCC(c5c[nH]c6ncccc56)CC4)cccc3C2=S)C(=O)N1 (centres unmarked) [GT-08848, 3-(4-((4-(1H-pyrrolo[2,3-b]pyridin-3-yl)piperidin-1-yl)methyl)-1-thioxoisoindolin-2-yl)piperidine-2,6-dione] | B (80%< substrate protein remaining %≤ 100%) | B (80%< substrate protein remaining %≤ 100%) | B (80%< substrate protein remaining %≤ 100%) | B (80%< substrate protein remaining %≤ 100%) | A (0% ≤ substrate protein remaining % ≤ 80%) | B (80%< substrate protein remaining %≤ 100%) | 30 to 40 | 80 to 100 | – | – | – | – | – | – |
| O=C1CCC(N2Cc3c(CN4CCC(c5n[nH]c6cc(F)ccc56)CC4)cccc3C2=S)C(=O)N1 (centres unmarked) [GT-08849, 3-(4-((4-(6-fluoro-1H-indazol-3-yl)piperidin-1-yl)methyl)-1-thioxoisoindolin-2-yl)piperidine-2,6-dione] | B (80%< substrate protein remaining %≤ 100%) | B (80%< substrate protein remaining %≤ 100%) | B (80%< substrate protein remaining %≤ 100%) | B (80%< substrate protein remaining %≤ 100%) | A (0% ≤ substrate protein remaining % ≤ 80%) | A (0% ≤ substrate protein remaining % ≤ 80%) | 60 to 80 | 80 to 100 | – | – | – | – | – | – |
| O=C1CCC(N2Cc3c(CN4CCC(N5CCCc6cc(F)ccc65)CC4)cccc3C2=S)C(=O)N1 (centres unmarked) [GT-08851, 3-(4-((4-(6-fluoro-3,4-dihydroquinolin-1(2H)-yl)piperidin-1-yl)methyl)-1-thioxoisoindolin-2-yl)piperidine-2,6-dione] | B (80%< substrate protein remaining %≤ 100%) | B (80%< substrate protein remaining %≤ 100%) | B (80%< substrate protein remaining %≤ 100%) | B (80%< substrate protein remaining %≤ 100%) | A (0% ≤ substrate protein remaining % ≤ 80%) | A (0% ≤ substrate protein remaining % ≤ 80%) | 40 to 53 | 60 to 80 | – | – | – | – | – | – |
| O=C1CCC(N2Cc3c(CN4CCC(N5CCOc6cc(F)ccc65)CC4)cccc3C2=S)C(=O)N1 (centres unmarked) [GT-08852, 3-(4-((4-(7-fluoro-2,3-dihydro-4H-benzo[b][1,4]oxazin-4-yl)piperidin-1-yl)methyl)-1-thioxoisoindolin-2-yl)piperidine-2,6-dione] | – | – | – | – | – | – | 40 to 53 | 80 to 100 | B (80%< substrate protein remaining %≤ 100%) | B (80%< substrate protein remaining %≤ 100%) | B (80%< substrate protein remaining %≤ 100%) | B (80%< substrate protein remaining %≤ 100%) | A (0% ≤ substrate protein remaining % ≤ 80%) | B (80%< substrate protein remaining %≤ 100%) |
| O=C1CCC(N2Cc3c(CN4CCC(c5cccc6c(F)cccc56)CC4)cccc3C2=S)C(=O)N1 (centres unmarked) [GT-08855, 3-(4-((4-(5-fluoronaphthalen-1-yl)piperidin-1-yl)methyl)-1-thioxoisoindolin-2-yl)piperidine-2,6-dione] | – | – | – | – | – | – | 30 to 40 | 60 to 80 | B (80%< substrate protein remaining %≤ 100%) | B (80%< substrate protein remaining %≤ 100%) | B (80%< substrate protein remaining %≤ 100%) | B (80%< substrate protein remaining %≤ 100%) | A (0% ≤ substrate protein remaining % ≤ 80%) | A (0% ≤ substrate protein remaining % ≤ 80%) |
| O=C1CCC(N2Cc3c(CN4CCC(c5cccc6cnccc56)CC4)cccc3C2=S)C(=O)N1 (centres unmarked) [GT-08857, 3-(4-((4-(isoquinolin-5-yl)piperidin-1-yl)methyl)-1-thioxoisoindolin-2-yl)piperidine-2,6-dione] | – | – | – | – | – | – | 60 to 80 | 80 to 100 | B (80%< substrate protein remaining %≤ 100%) | B (80%< substrate protein remaining %≤ 100%) | B (80%< substrate protein remaining %≤ 100%) | A (0% ≤ substrate protein remaining % ≤ 80%) | A (0% ≤ substrate protein remaining % ≤ 80%) | B (80%< substrate protein remaining %≤ 100%) |
| O=C1CCC(N2Cc3c(CN4CCC(c5ccnc6cc(F)ccc56)CC4)cccc3C2=S)C(=O)N1 (centres unmarked) [GT-08858, 3-(4-((4-(7-fluoroquinolin-4-yl)piperidin-1-yl)methyl)-1-thioxoisoindolin-2-yl)piperidine-2,6-dione] | – | – | – | – | – | – | 60 to 80 | 80 to 100 | B (80%< substrate protein remaining %≤ 100%) | B (80%< substrate protein remaining %≤ 100%) | B (80%< substrate protein remaining %≤ 100%) | B (80%< substrate protein remaining %≤ 100%) | A (0% ≤ substrate protein remaining % ≤ 80%) | B (80%< substrate protein remaining %≤ 100%) |
| O=C1CCC(N2Cc3c(CN4CC(c5ccnc6cc(F)ccc56)C4)cccc3C2=S)C(=O)N1 (centres unmarked) [GT-08860, 3-(4-((3-(7-fluoroquinolin-4-yl)azetidin-1-yl)methyl)-1-thioxoisoindolin-2-yl)piperidine-2,6-dione] | – | – | – | – | – | – | 60 to 80 | 80 to 100 | B (80%< substrate protein remaining %≤ 100%) | B (80%< substrate protein remaining %≤ 100%) | B (80%< substrate protein remaining %≤ 100%) | B (80%< substrate protein remaining %≤ 100%) | A (0% ≤ substrate protein remaining % ≤ 80%) | A (0% ≤ substrate protein remaining % ≤ 80%) |
